The assay concerns Testmikroorganismen. Kind of assay: Preservative challenge test (BP 1980 / USP XXI) of antacid preparations. It counts as cell-based. The conditions noted are these: for Ergebnisse von Konservierungstests: Hydrotalcitsuspensionen with the preservative added at various concentrations (Tabelle 2); for Vermehrung von Bakterien und Hefen: Hydrotalcitsuspensionen, also at high preservative concentrations. The source says: Der Nachweis der einwandfreien Haltbarmachung von Antacida-Zubereitungen erfolgte mit Hilfe geeigneter Konservierungsbelastungstests wie sie z.B. in der Britischen Pharmakopöe von 198O (British Pharmacopoeia 198O, Addendum 1982, Revised Apendix XVIC: Efficacy of Antimicrobial Preservatives in Pharmaceutical Products) oder der Pharmakopöe der Vereinigten Staaten (The United States Pharmacopeia XXI (1985) Antimicrobial Preservatives Effectiveness,S. 1151-1156) beschrieben werden.
Neben einer Richtlinie der WHO für nichtsterile Produkte, die eine Begrenzung des Keimgehalts in nichtsterilen oralen Arzneimitteln auf 1OOO/ml fordert, gelten unterschiedlich hohe Anforderungen hinsichtlich der Abtötungsrate für bestimmte Testmikroorganismen, je nach Pharmakopöe. Die britische Pharmakopöe verlangt z.B. eine Verminderung der Bakterienkonzentration um 2 Zehnerpotenzen innerhalb von 7 Tagen sowie keine Vermehrung von Hefen und Schimmelpilzen (s. Tab. 1).

SMILES strings stand for the structures.

For the molecule `O=C(O)c1ccccc1` [Benzoesäure], the “Ergebnisse von Konservierungstests” value is “unwirksam” and the “Vermehrung von Bakterien und Hefen” value is “Vermehrung von Bakterien und Hefen”.
Consider `N=C(NCCCCCCNC(=N)NC(=N)Nc1ccc(Cl)cc1)NC(=N)Nc1ccc(Cl)cc1` [Chlorhexidin], for which the “Ergebnisse von Konservierungstests” value is listed as “unwirksam”.
The same measure, in the same setting: in the case of `C=CCc1ccc(O)c(OC)c1` [Eugenol, 2-Methoxy-4-(2-propenyl)phenol] it was “gut konserviert”.
`C/C=C/C=C/C(=O)O` [Sorbinsäure]: the “Ergebnisse von Konservierungstests” value is on record as “unwirksam” and the “Vermehrung von Bakterien und Hefen” value is on record as “Vermehrung von Bakterien und Hefen”.
Consider `Cc1ccc(C(C)C)c(O)c1` [Thymol, 5-Methyl-2-(1-methylethyl)phenol], for which the “Ergebnisse von Konservierungstests” value is “gut konserviert”.
Same read-out and setting: in the case of `O=CC=Cc1ccccc1` [Zimtaldehyd, 3-Phenyl-2-propenal] it was “gut konserviert”.

The record behind these values is patent EP0241804A2, “Preserved antacid preparations” (BAYER AG, priority 1986, dated 1987).
